Measured values taken from paper PMC10603992, “Antimicrobial and Adjuvant Potencies of Di-n-alkyl Substituted Diazalariat Ethers” (Antibiotics, 2023).
≈ marks a conversion by molar mass, not a printed value. Read-outs that look alike come from different tables or passages of the source. Values belong to the compound of their own block, whether it stands above or below them.

Experiments:
K12 E. coli = test: MIC against K12 E. coli; assay type: cell-based; settings: Escherichia coli
S. aureus 1199B = test: MIC against S. aureus 1199B; assay type: cell-based, Staphylococcus aureus; settings: Staphylococcus aureus, 1199B, read-out: MIC S. aureus 1199B, MHII media, 90% growth inhibition
[1] = no reference given, cited from earlier work
DH5α E. coli [2] = test: MIC against DH5α E. coli; assay type: cell-based; settings: Escherichia coli, no additional antimicrobial; MICs in table limited to […]; read-out: Minimum inhibitory concentration against DH5α E. coli
DH5α E. coli [3] = system: DH5α E. coli; parameters: method as in PMID 15858645; settings: free bases, previously reported data; cited from earlier work

SMILES: CCn1cc(C(=O)O)c(=O)c2cc(F)c(N3CCNCC3)cc21 [Norfloxacin, reference compound]
MIC (K12 E. coli; MHII media, 90% growth inhibition, read-out: MIC K12 E. coli): 0.125 µM (≈ 0.0399 µg/mL)
MIC (S. aureus 1199B): 64 µM (≈ 20.4 µg/mL)

SMILES: CC1(C)S[C@@H]2[C@H](NC(=O)Cc3ccccc3)C(=O)N2[C@H]1C(=O)O [Penicillin G, penicillin G]
pKa of the carboxyl groups ([1]; general value): 2.6–2.8

SMILES: CCCCN1CCOCCOCCN(CCCC)CCOCCOCC1 [di-n-butyl-diaza-18-crown-6]
pK1 of macro ring nitrogen atoms [1]: 9.40
pK2 of macro ring nitrogen atoms [1]: 7.97

MIC (DH5α E. coli [2]): > 128 µM
SMILES: CCCCCCCC[N+]1(C)CCOCCOCC[N+](C)(CCCCCCCC)CCOCCOCC1 (stereo not shown) [n-octyl LE•MeI]

SMILES: CCCCCCCCCCCCCCN1CCOCCOCCN(CCCCCCCCCCCCCC)CCOCCOCC1 [n-tetradecyl LE]
MIC (K12 E. coli; read-out: MIC K12 E. coli, MHII media, 90% growth inhibition): ≥ 128 µM
Minimum inhibitory concentration against DH5α E. coli (DH5α E. coli [3]): >128 µM

MIC (DH5α E. coli [2]): > 128 µM
SMILES: CCCCCCCCCCCCCC[N+]1(C)CCOCCOCC[N+](C)(CCCCCCCCCCCCCC)CCOCCOCC1 (stereo not shown) [n-tetradecyl LE•MeI]

SMILES: CCCCCCCCCCCN1CCOCCOCCN(CCCCCCCCCCC)CCOCCOCC1 [n-undecyl LE, N,N′-Di-n-undecyl-4,13-diaza-18-crown-6]
Minimum inhibitory concentration against DH5α E. coli (DH5α E. coli [3]): 20 µM (≈ 11.4 µg/mL)
